± gives the expanded uncertainty stated by the source.
Details: 293 K; 101.33 kPa; Crystal; X-ray diffraction

## O=P([O-])([O-])[O-].[Er+3] [erbium phosphate]
  molar volume: 4.271e-05 ± 5.1e-07 m3/mol

— the NIST ThermoML archive (doi:10.1016/j.tca.2012.02.002)
